# Measured values reported in patent US6787564B2, “Optically active clausenamides, process of the preparation thereof, pharmaceutical composition containing the same and their medical use” (Institute of Materia Medica, Chinese Academy of Medical …, priority 2002, dated 2004).
# Columns and labels:
# calpain = calpain activity in the cortical and hippocampal tissue; assay type: in vivo, rats; settings: without HFS, Nimodipine 2 nmol, mean ± S.D., n = 5
# From the text: The rats were anaesthetized with urethane carbonate.
# rats = assay: mossy fiber sprouting in fascia dentata and hippocampal CA3 region; assay type: in vivo; settings: 8 and 40 mg·kg^−1 orally daily for 10 days; adult rat
# From the text: 2. […] This is morphological basis for levoclausenamide to incnease synaptic transmission (see FIGS. 1 and 2).
# BDNF = BDNF protein expression in cortical neurons and hippocampal pyramide cells; assay type: in vivo, rats; settings: 8, 40 mg·kg^−1 orally daily for 10 days
# [1] = tested on: β-AP (25-35)-treated rats; assay: one trial passive avoidance of β-AP (25-35)-treated rats; assay type: in vivo; settings: n = 9
# Bcl-2 = Bcl-2 expression level by western blot in 6-OHDA treated Bax α high expressing PC12 cells; assay type: cell-based; settings: 10^−7M, 10^−6M; 24 hours after 6-OHDA treatment
# From the text: (§1) It means that Bax α expression may promote the production of reactive oxygen species. The antiapoptotic effect of (−) clausenamide may be attributed to its reduction of the mitochondrial MDA level and the increase of mitochondrial GSH level. The increased mitochondrial GSH may be the result of the increased Bcl-2 level. As Bcl-2 itself is not an antioxidant, it may promote the closing of PT pores, and form heterodimers with Bax α and protect the mitochondria from injury and thus reduce the production of reactive oxygen, species.
# [2] = tested on: Bax α high expressing PC12 cells; assay: mitochondrial GSH and MDA level in 6-OHDA treated Bax α high expressing PC12 cells; assay type: cell-based; settings: for mitochondrial GSH level: without drug 9.84±1.20; for mitochondrial MDA level: without drug 2.46±0.19
# From the text: as §1
# mitochondrial complex I = mitochondrial complex I activity in Bax α high expressing PC12 cells; assay type: cell-based; settings: without drug 1.44±0.16
# From the text: (§2) Obviously, the increased mitochondrial membrane potential is considered to be one of the antiapoptotic mechanisms of (−) Clausenamide. The increased mitochondrial complex I and complex IV activity may account for the increased mitochondrial membrane potential. The Bax α protein may induce apoptosis by affecting enzyme activities of the mitochondrial electron transfer chain. And the mitochondrial complex I and complex IV could be the targeting points of the Bax α protein.
# mitochondrial complex IV = mitochondrial complex IV activity in Bax α high expressing PC12 cells; assay type: cell-based; settings: without drug 0.09±0.019
# From the text: as §2
# isolated mitochondria = assay: Bax α induced cytochrome c release from isolated mitochondria; assay type: biochemical
# From the text: Studies have shown that the widely existing cytochrome c plays an important role in inducing apoptosis. Cytochrome c is the water soluble cytochrome within the cell and existed at the outside of the mitochondria inner membrane. Cytochrome c could be released into the cytoplasm from the mitochondrial to activate the apoptotic program. This study first purified the His-tagged Bax protein from the bacteria by the Metal Affinity method. When added to the isolated mitochondria, it caused a significant decrease of mitochondrial cytochrome c content (74.43±5.69 ug/mg, pro vs 50.2±3.65 ug/mg pro, p<0.01). […] It means that (−) clausenamide may also act directly on mitochondrial itself to exert its antiapoptotic activity independent Bcl-2. The exact mechanism of action still remains to be determined.
# apoptosis = assay: three apoptotic models; assay type: cell-based; settings: 10^−7−10^−5 mol/l
# [3] = tested on: animals with anisodine-induced memory impairment; assay: step-through test, memory impairment induced by anisodine; assay type: in vivo
# From the text: (§3) This invention used one trial avoidance task—step-down and step-through tests and water maze to compare the improving memorial effects of (±), (−) clausenamide. The drugs were given orally once to animals before experiment in step-down and step-through tests. The water maze test lasted for 5 days in succession. The results were expressed as latency and errors number.
# [4] = tested on: animals with anisodine-induced memory impairment; assay: step-down test, memory impairment induced by anisodine; assay type: in vivo
# From the text: as §3
# [5] = tested on: animals with anisodine-induced memory impairment; assay: memory impairment induced by anisodine in water maze test; assay type: in vivo; settings: anisodine + drug 10 mg/kg
# From the text: as §3
# [6] = tested on: dentate gyrus of hippocampus; assay: induction of LTP in hippocampal of rat (population spike amplitude); assay type: in vivo, SD rats; settings: I.C.V.; means ± SD
# From the text: Adult male SD rats were anesthetized to maintain a surgical level. A stainless steel cannula-recording electrode was placed in DG (dentate gyrus) of hippocampus using a stereotaxic instrument. The combination of cannula-recording electrode was constructed by insulating the outside of the cannula, except at the tip and top. In the top noninsulated area, a stainless steel wire was wrapped around the cannula and connected to the amplifier via an amphenol connector. The four pairs optically active clausenamides shown in table 9 was delivered by I.C.V. Responses were evoked via direct stimulation of the performant path (PP) using a stainless steel bipolar stimulating electrode. Constant current stimulation provided by a stimulator was delivered to the stimulating electrode through a Stimulus Isolation Unit.
# The stimulating electrode was adjusted until a characteristic EPSP was observed under constant current. The evoked responses were amplified on a series alternating current preamplifier, using a microcomputer, and then stored for off-line analysis using DataWave software. The current intensity that elicited a 50% maximal response in each animal was determined and used for all subsequent stimulation. To measure treatment effects, responses were evoked once every 30 sec throughout the entire experiment, and population spike amplitude(PSA) were calculated.
# animals = assay: nootropic action overall: step-down, step-through and water maze tests; assay type: in vivo; settings: in vivo
# Procedure: This invention used one trial avoidance task—step-down and step-through tests and water maze to compare the improving memorial effects of (±), (−) clausenamide.
# The drugs were given orally once to animals before experiment in step-down and step-through tests. The water maze test lasted for 5 days in succession. The results were expressed as latency and errors number.
# The effective dose of piracetam was 500 mg.kg^−1.
# potassium channel = potassium channel blockade (nootropic mechanism)
# weaning mice = assay: synapses density in weaning mice; settings: mouse, in vivo
# [7] = anisodine + drug 10 mg/kg (Tab 7)
# [8] = anisodine + drug 50 mg/kg (Tab 7)
structure (smiles),measurement,setting,value
"CN1C(=O)[C@@H](O)[C@H](c2ccccc2)[C@@H]1[C@@H](O)c1ccccc1 [(−)clausenamide, 3S, 4R, 5R, 6S (−) Levoclausenamide]","calpain activity, Cortical tissue",calpain; control 1.5 ± 0.2,2.6 ± 0.5 ΔA595nm/hr/mg protein
same,"calpain activity, Hippocampal tissue",calpain; control 1.7 ± 0.5,2.7 ± 0.8 ΔA595nm/hr/mg protein
same,mossy fiber sprouting in the fascia dentate and stratum lucidum,rats,dose-dependently increased
same,BDNF protein expression in the cortical neurons and pyramide cells in the hippocampus,BDNF,dose-dependently increased
same,"Number of error, Acquisition",[1]; β-AP-treated + drug 8 mg/kg,0.7 ± 0.24
same,"Number of error, Training",[1]; β-AP-treated + drug 8 mg/kg,3.1 ± 1.22
same,"Number of error, Acquisition",[1]; β-AP-treated + drug 40 mg/kg,1.1 ± 0.27
same,"Number of error, Training",[1]; β-AP-treated + drug 40 mg/kg,4.4 ± 0.87
same,Bcl-2 expression level,Bcl-2,significantly increase the Bcl-2 expression level
same,mitochondrial GSH level,[2]; 10^−5M,17.78±1.04 nmol/mg pro
same,mitochondrial MDA level,[2]; 10^−6M,1.54±0.13 nmol/mg pro
same,mitochondrial GSH level,[2]; 10^−6M,15.10±0.95 nmol/mg pro
same,mitochondrial GSH level,"[2]; 10^−7M, 6-OHDA treated",12.29±0.99 nmol/mg pro
same,mitochondrial MDA level,[2]; 10^−7M,1.76±0.17 nmol/mg pro
same,mitochondrial complex I activity,mitochondrial complex I; 10^−5M,2.16±0.2 umol/mg pro/min
same,mitochondrial complex I activity,mitochondrial complex I; 10^−7M,1.57±0.12 umol/mg pro/min
same,mitochondrial complex IV activity,mitochondrial complex IV; 10^−5M,0.18±0.01 umol/mg pro/min
same,mitochondrial complex IV activity,mitochondrial complex IV; 10^−6M,0.15±0.02 umol/mg pro/min
same,mitochondrial complex IV activity,mitochondrial complex IV; 10^−7M,0.12±0.015 umol/mg pro/min
same,mitochondrial cytochrome c content after Bax α induced release,"isolated mitochondria; 10^−5M, Bax alone 50.2±3.65",67.95±7.6 μg/mg pro
same,mitochondrial cytochrome c content after Bax α induced release,"isolated mitochondria; 10^−6M, Bax alone 50.2±3.65",61.7±5.3 μg/mg pro
same,mitochondrial cytochrome c content after Bax α induced release,"isolated mitochondria; 10^−7M, His-tagged Bax alone 50.2±3.65, no Bax 74.43±5.69",58.73±3.77 μg/mg pro
same,apoptosis in three apoptotic models,apoptosis,inhibited apoptosis significantly
same,"Latencies, Step-through",[3]; 5 mg/kg oral once,47.9 ± 90 s
same,"Error number, Step-through","[3]; 5 mg/kg oral once, 0.9% Nacl + anisodine 12.7 ± 4.6",5.7 ± 4.7
same,"Error number, Step-through",[3]; 10 mg/kg oral once (Table 4),6.5 ± 5.0
same,"Latencies, Step-through",[3]; 10 mg/kg oral once (Table 4),59.4 ± 91 s
same,"Error number, Step-through",[3]; 50 mg/kg oral once (Table 4),7.1 ± 3.6
same,"Latencies, Step-through",[3]; 50 mg/kg oral once (Table 4),17.1 ± 12.4 s
same,Error number,[3]; [7],6.7 ± 11.0
same,Latencies,[3]; [7],138.2 ± 86.7 s
same,Error number,[3]; [8],5.4 ± 4.1
same,Latencies,[3]; [8],140.6 ± 96.4 s
same,"Error number, Step-down",[4]; 5 mg/kg oral once,0.5 ± 0.5
same,"Latencies, Step-down",[4]; 5 mg/kg oral once,186 ± 129 s
same,"Error number, Step-down",[4]; 10 mg/kg oral once,0.2 ± 0.4
same,"Latencies, Step-down",[4]; 10 mg/kg oral once,296 ± 97 s
same,"Error number, Step-down",[4]; 50 mg/kg oral once,0.2 ± 0.4
same,"Latencies, Step-down",[4]; 50 mg/kg oral once,265 ± 91 s
same,Errors number,[5],9.4 ± 5.9
same,"PSA (%), 15 min",[6],131.8 ± 0.4%
same,"PSA (%), 30 min",[6],138.5 ± 8.9%
same,"PSA (%), 60 min",[6],158.1 ± 4.2%
same,"nootropic action, times more potent than (±) clausenamide",animals,5-10 times
same,"nootropic action, times more potent than piracetam",animals,50-100 times
same,potassium channel action,potassium channel,potassium channel blocker
same,synapses density in weaning mice,weaning mice,increased synapses density
